Experimental data taken from patent US10849866B2, “Methods for inhibiting conversion of choline to trimethylamine (TMA)” (The Procter & Gamble Company, priority 2017, dated 2020).

Assays:
[1] = system: Proteus mirabilis 29906 (Pm) lysate; assay: Inhibition of formation of TMA from choline in Proteus mirabilis lysate (Example 2); type: biochemical; settings: Pm lysate 1.5 mg/mL protein, 50 μM d9-choline chloride, 37° C., two hours; read-out: TMA Inhibition (IC50, mol/L)
Experimental: Choline chloride (CC) (1M stock) was added to reach a final concentration of 2.5 mM choline chloride. The mixture was mixed using a vortex mixer for approximately 15 seconds and incubated at 37° C. for 22 hours. After incubation, 150 μL of CC-treated Pm lysate was dispensed into a deep-well plate (polypropylene, 2 mL volume, Corning Axygen catalogue # P-DW-20-C). […] The plates were agitated on a plate shaker for 1 minute. d9-choline chloride (1.5 μL of 5 mM) was added to all wells to reach a final d9-choline chloride concentration of 50 μM.
The plates were again agitated on a plate shaker for 1 minute and incubated at 37° C. for two hours. After incubation, 1.5 μL of formic acid was added to each well (final concentration=1% formic acid). The plates were agitated on a plate shaker for 1 minute and placed on ice. Cell lysate samples were spiked with stable isotope labeled internal standard (22.5 μL of 6 μg/mL of 13C3-trimethylamine (13C3-TMA) was added to each sample), then d9-trimethylamine (d9-TMA), trimethylamine (TMA) and 13C3-TMA were isolated from the lysate after protein precipitation as described below. […] The supernatant was removed and analyzed as described below. […] The concentrations of TMA and d9-TMA in the cell lysate were determined by interpolation from the quadratic (1/×2) regression curve.

[2] = biological target: T1, recombinant P. mirabilis Cut C/D lysate (Proteus mirabilis, UniProt B4EYG1); assay: Inhibition of conversion of choline to TMA by recombinant P. mirabilis Cut C/D lysate (Example 5); type: biochemical
T1 sequence (B4EYG1 1-1142): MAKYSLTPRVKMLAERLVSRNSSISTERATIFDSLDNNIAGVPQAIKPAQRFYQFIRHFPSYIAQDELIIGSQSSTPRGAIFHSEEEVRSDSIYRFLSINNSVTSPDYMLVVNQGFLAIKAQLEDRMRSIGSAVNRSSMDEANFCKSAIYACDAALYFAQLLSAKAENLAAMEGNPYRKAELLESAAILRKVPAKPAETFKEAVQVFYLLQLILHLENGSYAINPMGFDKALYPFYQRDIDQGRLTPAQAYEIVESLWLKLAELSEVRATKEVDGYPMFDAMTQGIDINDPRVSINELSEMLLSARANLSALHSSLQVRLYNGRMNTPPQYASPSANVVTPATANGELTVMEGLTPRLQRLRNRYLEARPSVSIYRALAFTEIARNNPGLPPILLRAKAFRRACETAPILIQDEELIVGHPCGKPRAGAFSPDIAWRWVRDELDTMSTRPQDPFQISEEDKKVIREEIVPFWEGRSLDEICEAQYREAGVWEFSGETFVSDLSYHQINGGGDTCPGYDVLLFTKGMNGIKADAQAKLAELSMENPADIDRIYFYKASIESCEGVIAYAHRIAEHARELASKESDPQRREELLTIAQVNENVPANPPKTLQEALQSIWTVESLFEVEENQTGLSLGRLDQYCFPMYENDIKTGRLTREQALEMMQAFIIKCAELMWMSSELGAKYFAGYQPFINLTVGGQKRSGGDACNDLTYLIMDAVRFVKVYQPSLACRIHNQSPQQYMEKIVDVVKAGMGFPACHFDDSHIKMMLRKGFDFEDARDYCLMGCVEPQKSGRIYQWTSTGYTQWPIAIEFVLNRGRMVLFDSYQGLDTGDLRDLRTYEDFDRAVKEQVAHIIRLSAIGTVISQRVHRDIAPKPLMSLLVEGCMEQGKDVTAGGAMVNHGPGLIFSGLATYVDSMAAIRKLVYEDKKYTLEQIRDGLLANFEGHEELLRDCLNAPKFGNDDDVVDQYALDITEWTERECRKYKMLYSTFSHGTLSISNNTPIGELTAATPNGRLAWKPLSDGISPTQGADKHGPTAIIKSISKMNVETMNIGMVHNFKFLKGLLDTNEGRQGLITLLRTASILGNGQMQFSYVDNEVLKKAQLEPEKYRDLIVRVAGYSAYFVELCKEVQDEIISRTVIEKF
T1 sequence (B4EYG0 1-316 partner): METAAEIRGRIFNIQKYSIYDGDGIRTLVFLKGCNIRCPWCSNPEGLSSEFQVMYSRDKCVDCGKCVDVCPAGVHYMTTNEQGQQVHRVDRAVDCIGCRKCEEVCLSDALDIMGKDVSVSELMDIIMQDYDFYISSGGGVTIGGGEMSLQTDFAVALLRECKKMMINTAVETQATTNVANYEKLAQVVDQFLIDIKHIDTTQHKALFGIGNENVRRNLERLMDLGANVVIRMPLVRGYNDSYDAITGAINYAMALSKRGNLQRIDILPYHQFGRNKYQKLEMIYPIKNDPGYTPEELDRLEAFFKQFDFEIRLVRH
Experimental: (§1) Briefly, efficacy was measured as IC50 (nM) by inhibition of conversion of choline to TMA metabolized by recombinant P. mirabilis Cut C/D lysate; recombinant D. alaskensis Cut C/D lysate, or whole cell wild-type P. mirabilis.

[3] = biological target: T2, recombinant D. alaskensis Cut C/D lysate (Oleidesulfovibrio alaskensis, UniProt Q30W70); assay: Inhibition of conversion of choline to TMA by recombinant D. alaskensis Cut C/D lysate (Example 5); type: biochemical
T2 construct: made in house
T2 sequence (Q30W70 1-846): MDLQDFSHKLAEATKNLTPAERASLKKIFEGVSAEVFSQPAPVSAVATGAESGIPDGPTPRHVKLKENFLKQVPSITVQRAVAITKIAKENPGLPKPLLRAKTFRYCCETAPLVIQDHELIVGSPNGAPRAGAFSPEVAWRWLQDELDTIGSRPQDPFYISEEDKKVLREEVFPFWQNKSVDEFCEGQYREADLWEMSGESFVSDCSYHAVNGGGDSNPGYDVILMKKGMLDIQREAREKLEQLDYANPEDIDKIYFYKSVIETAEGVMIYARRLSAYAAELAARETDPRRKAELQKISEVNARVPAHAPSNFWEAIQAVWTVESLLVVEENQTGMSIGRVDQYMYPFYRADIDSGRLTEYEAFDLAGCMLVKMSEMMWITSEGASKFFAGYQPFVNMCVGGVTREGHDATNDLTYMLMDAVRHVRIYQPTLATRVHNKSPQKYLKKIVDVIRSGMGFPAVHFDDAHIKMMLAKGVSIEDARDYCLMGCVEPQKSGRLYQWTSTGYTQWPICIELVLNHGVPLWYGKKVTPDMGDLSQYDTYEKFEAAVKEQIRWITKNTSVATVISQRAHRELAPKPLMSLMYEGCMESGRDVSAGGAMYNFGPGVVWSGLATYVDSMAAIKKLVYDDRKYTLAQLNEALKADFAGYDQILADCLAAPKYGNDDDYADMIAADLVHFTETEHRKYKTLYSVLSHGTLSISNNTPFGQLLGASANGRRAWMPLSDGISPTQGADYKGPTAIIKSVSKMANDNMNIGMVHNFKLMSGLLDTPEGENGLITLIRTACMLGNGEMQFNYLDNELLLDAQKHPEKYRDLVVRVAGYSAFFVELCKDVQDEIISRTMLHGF
Experimental: as §1

[4] = system: whole cell wild-type P. mirabilis; assay: Inhibition of conversion of choline to TMA by whole cell wild-type P. mirabilis (Example 5); type: cell-based; settings: Proteus mirabilis
Experimental: as §1

[5] = system: conversion of choline to TMA; assay: Rapid preclinical method: d9-choline challenge in mice (Example 6); type: in vivo, C57bl/6 female mice; settings: oral gavage with 2 mg d9-Choline, plasma, Time 3 hr
Experimental: Challenge: C57bl/6 female mice (8 wk of age ˜20 g BW) were maintained in accordance with the NIH guidelines in a 12:12 hr light:dark cycle on normal chow diet were placed in a clean cage without food ˜1 hr prior to gavage. […] Food was returned after a 2 hr fast (1 hr after gavage administration). Blood (30 μL) was collected into a heparinized capillary tube at 2, 3 and 4 hours after gavage. Blood was kept at 4° C., then spun using a centrifuge (5 min in centrifuge designed to capillary tubes) to separate plasma and hematocrit within 4 hours after collection. Plasma samples were stored at −80° C. Concentration of d9 Choline, d9TMA and d9TMAO was measured by LC-MS/MS.
Flora Normalization: Twenty four hours post-gavage mice were placed in a clean cage and fecal material from conventional mice was spread in all the cages.

Row | SMILES | IC50 [1] [µM] | IC50 [2] [µM] | IC50 [3] [µM] | EC50 [4] [µM] | Calculated EC50 (mg/kg) compared to Vehicle Control [5] [mg/kg]
1 | C[N+](C)(CCl)CCF [ID 1, N-(chloromethyl)-2-fluoro-N,N-dimethylethan-1-aminium chloride] | 0.27 | 0.69 | 0.76 | 8.7 | 3.10
2 | C[N+](C)(CI)CCF [ID 2, 2-fluoro-N-(iodomethyl)-N,N-dimethylethan-1-aminium chloride] | 0.179 | 0.24 | 0.15 | 67 | 15.40
